Laboratory results as given in US20230038646A1, “NOVEL AND POTENT JAK/STAT INHIBITOR” (Texas Tech University System, priority 2020, published 2023).

Experiments:
[1] = tested on: Daoy cells (medulloblastoma); experiment: Subcutaneously implanted Daoy tumor growth in mice; assay type: in vivo; conditions: subcutaneous Daoy
Description: (§1) Moxidectin suppresses the growth of subcutaneously implanted brain cancer cells. To evaluate the ability of moxidectin in inhibiting the growth of brain tumor cells in vivo, ~ 4 million Daoy cells were injected subcutaneously into the right flank of the mice. Once the tumor cells started growing and the tumor volume reached ~ 70 mm^3, mice were randomized into four groups. Control group received the vehicle whereas the treatment group received 2.5 mg/kg, 5 mg/kg and 10 mg/kg moxidectin once every day. The tumor readings were taken twice a week throughout the course of the experiment using Vernier caliper. […] Similarly, 2.5 mg/kg and 5 mg/kg moxidectin suppressed Daoy tumor growth by 45% and 60% respectively (FIG. 4B).
as §1, with “4C). […] In another experiment, ~0.3 million Daoy luc cells were injected intracranially in the brain of athymic nude mice. The mice were given 2.5 mg/kg for 33 days. Moxidectin was able to inhibit -65% of intracranially implanted medulloblastoma tumors. […] Additionally, ~ 3 million SK-N-AS neuroblastoma cells were injected subcutaneously in the right flank of the mice. Mice were randomized on day 10. Treatment group received 3.5 mg/kg moxidectin. The experiment was terminated on day 23. Moxidectin was able to inhibit 60% of subcutaneously implanted neuroblastoma tumors (FIG. 4D).” for “4B).”

[2] = tested on: STAT3; experiment: Western blotting of STAT3 phosphorylation in treated brain cancer cells; assay type: cell-based; conditions: Daoy, IMR32, KNS42; 0, 10, 15 and 20 µM, 48 hours
Description: (§2) Moxidectin inhibits JAK-STAT signaling. In order to delineate the mechanism by which moxidectin mediates its anti-cancer effects in brain cancer cell lines, Daoy, IMR32, and KNS42 cells were treated with 0, 10, 15 and 20 µM moxidectin for 48 hours and evaluated by western blotting. […] It has been reported that, upon activation (phosphorylation) JAK2 activates multiple downstream transcription factors one of which is STAT3. Hyper activation of STAT3 in cancer cells is strongly attributed to evasion of apoptosis and transcriptional activation of anti-apoptotic proteins such as Bcl-2 and c-myc.
(§3) It has been reported that, upon activation (phosphorylation) JAK2 activates multiple downstream transcription factors one of which is STAT3. Hyperactivation of STAT3 in cancer cells is strongly attributed to evasion of apoptosis and transcriptional activation of anti-apoptotic proteins such as Bcl-2 and c-myc.

[3] = tested on: Daoy, KNS42 and IMR32 brain cancer cells; experiment: Annexin V/FITC apoptosis assay (FIGS. 2A-2C); assay type: cell-based
Description: The percentage of apoptotic cells with 20 µM moxidectin treatment ranged from 90-100% in all the brain cancer cell lines tested (FIGS. 2A-2C).
Induction of apoptosis by moxidectin. The mode of cell death caused by moxidectin treatment was determined by Annexin V/FITC assay in Daoy, KNS42 and IMR32 brain cancer cells. […] 15 µM moxidectin induced -80% apoptosis in Daoy, KNS42 and IMR32 brain cancer cell lines. The percentage of apoptotic cells with 20 µM moxidectin treatment ranged from 90-100% in all the brain cancer cell lines tested (FIGS. 2A-2C). Induction of apoptosis by moxidectin treatment in these cell lines was further assessed by increase in the cleavage of caspase 3 and PARP (FIG. 3).

[4] = tested on: SK-N-AS neuroblastoma cells; experiment: Subcutaneously implanted SK-N-AS neuroblastoma tumors in mice; assay type: in vivo; conditions: 3.5 mg/kg; randomized day 10, terminated day 23
[5] = tested on: Daoy (medulloblastoma), IMR32 (neuroblastoma) and KNS42 (glioblastoma) cells; experiment: Proliferation / survival of brain cancer cells (FIGS. 1A-1C); assay type: cell-based
Excerpt: Moxidectin treatment suppresses the proliferation of brain cancer cells.

[6] = tested on: caspase 3 and PARP; experiment: Western blotting of caspase 3 and PARP cleavage in treated brain cancer cells; assay type: cell-based; conditions: Daoy, IMR32 and KNS42; 48 hours
Description: as §2
(§4) Moreover, moxidectin increased the cleavage of caspase 3 and PARP as an indication of apoptosis, a primary mode of cell death (FIG. 3).
(§5) Moreover, moxidectin increased the cleavage of caspase 3 and PARP as an indication of apoptosis, a primary mode of cell death (FIG. 7).

[7] = tested on: Daoy luc cells (medulloblastoma); experiment: Intracranially implanted Daoy luc tumors in mice; assay type: in vivo, athymic nude mice; conditions: 2.5 mg/kg for 33 days; intracranial Daoy luc
[8] = tested on: Daoy, UW228, ONS76, UW246, PFSK1 (medulloblastoma), IMR32, SF268, SF295 (glioblastoma), SK-N-AS (neuroblastoma) cells; experiment: Proliferation / survival of brain cancer cell line panel (FIGS. 5A-5I); assay type: cell-based
[9] = tested on: Daoy, UW228, ONS76, UW426, PFSK1 and IMR32 brain cancer cells; experiment: Annexin V/FITC apoptosis assay (FIGS. 6A-6F); assay type: cell-based
Description: (§6) The mode of cell death caused by moxidectin treatment was determined by Annexin V/FITC assay in Daoy, UW228, ONS76, UW426, PFSK1 and IMR32 brain cancer cells (FIGS. 6A-6F, resepectively). […] 15 µM moxidectin induced -80% apoptosis in Daoy and IMR32 brain cancer cell lines. The percentage of apoptotic cells with 20 µM moxidectin treatment ranged from 90-100% in all the brain cancer cell lines. Induction of apoptosis by moxidectin treatment in these cell lines was further assessed by increase in the cleavage of caspase 3 and PARP (FIG. 3).
as §6, with “FIGS. 6A-6F show the induction of apoptosis by moxidectin. The mode” for “The mode”, “PARP (FIG. 7).” for “PARP (FIG. 3).”

[10] = tested on: Janus Kinase 2 (JAK2); experiment: Western blotting of JAK2 in treated brain cancer cells; assay type: cell-based; conditions: Daoy, IMR32, KNS42, 0, 10, 15 and 20 µM, 48 hours
Description: Daoy, IMR32, and KNS42 cells were treated with 0, 10, 15 and 20 µM moxidectin for 48 hours and evaluated by western blotting.
as §2, §3

[11] = tested on: Bcl-2; experiment: Western blotting of Bcl-2 expression in treated brain cancer cells; assay type: cell-based; conditions: Daoy, IMR32 and KNS42; 48 hours
Description: as §2, §4, §5

[12] = treatment for 48 hours, all brain cancer cells
[13] = varying concentrations, concentration and time-dependent

Question: For CO/N=C1\C[C@]2(C[C@@H]3C[C@@H](C/C=C(\C)C[C@@H](C)/C=C/C=C4\CO[C@@H]5[C@H](O)C(C)=C[C@@H](C(=O)O3)[C@]45O)O2)O[C@H](/C(C)=C/C(C)C)[C@H]1C [Moxidectin], which “suppression of tumor growth” value ([1]; 2.5 mg/kg once every day) is on record?
Answer: Its value is 45%.

Question: What about the “suppression of tumor growth” value ([1]; 5 mg/kg once every day) of the same compound?
Answer: Its value is 60%.

Question: And the “suppression of tumor growth” value ([1]; 10 mg/kg once every day)?
Answer: Its value is 90%.

Question: What about the “phosphorylation of STAT3 at Tyr705” value [2] of the same compound?
Answer: The value was “reduced”.

Question: What about the apoptotic effects ([3]; 10 µM, 48 hours, all three cell lines) of the same compound?
Answer: Its apoptotic effects is “minimal apoptotic effects”.

Question: And the apoptosis induced ([3]; 15 µM, 48 hours, Daoy, KNS42 and IMR32)?
Answer: The apoptosis induced was 80%.

Question: And the “percentage of apoptotic cells” value ([3]; 20 µM, 48 hours, all cell lines tested)?
Answer: The value was 90-100%.

Question: What about the apoptosis [3, 12] of the same compound?
Answer: The apoptosis was “significant increase”.

Question: And the “inhibition of subcutaneously implanted neuroblastoma tumors” value [4]?
Answer: Its value is 60%.

Question: What about the IC50 ([5]; Daoy, IMR32 and KNS42, 24, 48 and 72-hour time point) of the same compound?
Answer: The IC50 was 11 to 16 µM.

Question: And the survival of cells [5, 13]?
Answer: The survival of cells was “significant reduction”.

Question: What about the “cleavage of caspase 3 and PARP” value [6] of the same compound?
Answer: Its value is “increased”.

Question: And the inhibition of intracranially implanted tumors [7]?
Answer: Its inhibition of intracranially implanted tumors is 65%.

Question: And the IC50 ([8]; all brain cancer cell lines, 24, 48 and 72-hour time point)?
Answer: Its IC50 is 9.7 to 30 µM.

Question: What about the survival of cells [8, 13] of the same compound?
Answer: Its survival of cells is “significant reduction”.

Question: What about the apoptotic effects ([9]; 10 µM, 48 hours, all cell lines tested) of the same compound?
Answer: The apoptotic effects was “minimal apoptotic effects”.

Question: What about the apoptosis induced ([9]; 15 µM, 48 hours, Daoy and IMR32) of the same compound?
Answer: The apoptosis induced was 80%.

Question: What about the “percentage of apoptotic cells” value ([9]; 20 µM, 48 hours, all cell lines) of the same compound?
Answer: Its value is 90-100%.

Question: And the apoptosis [9, 12]?
Answer: The apoptosis was “significant increase”.

Question: And the “protein level of JAK2” value [10]?
Answer: The value was “remained unchanged”.

Question: What about the “phosphorylation of JAK2 at Tyr1007/1008” value ([10]; concentration-dependent) of the same compound?
Answer: The value was “reduced”.

Question: What about the “expression of anti-apoptotic protein Bcl-2” value [11] of the same compound?
Answer: The value was “reduced”.
